# Measured values from patent EP2657347A1, “Electrochemical competitive assay and use thereof” (Université Paris Diderot - Paris 7, priority 2012, dated 2013).
# Key:
# D-Apt49 [1] = assay: Redox-mediated catalytic cyclic voltammetry titration with aptamer; format: binding
# Experimental: (§1) All experiments were performed in 5 mM Tris buffer (pH 7) containing 10 mM MgCl2 and 50 mM NaCl (Recognition Buffer, RBr). The L-Tym concentration is always 5 µM. For cyclic voltammetric experiments, 1 µM [Os(bpy)3]2+ with 5 µM 1-Tym in a droplet of 50 µL RBr was used. So, before each experiment, the droplet is shaking with a micropipette. This procedure is repeated until we obtain a reproducible and stable voltammogram. Mother solution of Fc-1-Tym was a […] solution in DMF. This product is conserved at 4°C and seal with parafilm. Before each experiment, this solution is diluted 10 times in stabilized DMF, such as 0.2 µL in 50 µL of RBr leads to 5 µM of Fc-1-Tym.
# (§2) Cyclic voltammetry measurements were performed with an AUTOLAB PGSTAT 12 potentiostat/galvanostat controlled by computer, and the data were acquired using GPES 4.9007 software (EcoChemie, The Netherlands). Small self-contained electrochemical cells made of 3 screen-printed electrodes on a flat substrate were used for all experiments. The electrodes were printed using a DEK model-65 screen-printer. Working electrodes were 4 mm diameter screen-printed carbon electrodes prepared using a commercial carbon ink (Electrodag PF-470 A) deposited on the top of an underlying Ag layer (Electrodag 418 SS). Counter electrode was obtained using an Ag ink (Electrodag 418 SS).
# (§3) Before experiments, the screen-printed carbon electrodes were coated with bovine serum albumin (BSA) by immersing the electrodes in a 1 mg/mL BSA solution for 10 minutes at room temperature. The BSA-modified electrodes were next cycled between 0 V and 0.8 V at v = 0.05 V/s, until of the capacitive background current in cyclic voltammetry was stablized.
# The 49-mer aptamer we have used (see here above) is a sequence similar to the one that was previously selected by Vianini et al and successfully applied to chromatographic- and fluorescence-based L-Tym assays. Since direct electrochemical oxidation of phenolic compounds generally leads to electrode passivation and thus to poorly reproducible anodic peak current in cyclic voltammetry (CV), the electrochemical detection of L-Tym was performed by redox-mediated catalytic oxidation of the phenolic function. For such a purpose, we have used the one-electron redox mediator couple [Os^III/II(bpy)3]^3+/2+ which, according to its relatively high standard potential (E^0=+0.58 V vs. Ag/AgCl), is capable to efficiently catalyze the oxidation of phenolic compounds. [drawing 51]
# The linear dependence of the peak current with both the square root of scan rate, v, and L-Tym concentration, indicates conditions of total catalysis for which the catalytic peak current response, ip, can be expressed by eq 1. ip = 0.609nFSCT^0 sqrt(DT)sqrt(fv/RT) [formula] where n is the number of electron involved in the catalytic reaction, F the Faraday constant, S the electrode area, C^0T the bulk concentration of L-Tym, and DT the diffusion coefficient of L-Tym. After aptamer addition, the binding reaction (eq 2) is rapidly set at equilibrium. [drawing 53] with Kd the dissociation constant. On the basis of a classical law of action mass and mass balance (i.e., C^0T = CT + CRT, with CT and CRT the free and receptor-bound target concentrations), and assuming a 1:1 binding stoichiometry, the free (χƒ) mole fraction of target in the bulk solution can thus be estimated by eq 3. χf = (CT)/(CT^0) = 1-(Kd + CT^0 + CR^0 -sqrt(((Kd+CT^0+CR^0))^2 -4CT^0 CR^0))/(2CT^0) [formula]
# Here, C^0R is the total concentration of the aptamer receptor added to the solution. Under the assumption of a slow interconversion of free and bound target on the time scale of CV experiments, the catalytic peak current can thus be expressed by a linear combination of the catalytic currents related to the free and bound target through eq 4. ip = 0.609nFSCT^0 sqrt(fv/RT)[χfsqrt(DT)+(1-χf)sqrt(DRT)] [formula] where DT and DRT are the diffusion coefficients of the free and receptor-bound target, respectively. […]
# D-Apt49 [2] = assay: Homogeneous electrochemical competitive binding assay in Tris buffer; details: 5 µM Fc-L-Tym, K^*d fixed at 1.2 µM
# Experimental: as §1, §2, §3
# The competitive assay can be described by the two equilibrated binding reactions 6a and 6b, in which Fc-L-Tym is L-tyrosinamide labeled by a redox-active ferrocene group. The ferrocenyl label was here incorporated on the ―OH position of the phenolic group (Scheme 1). Note that under this condition the catalytic oxidation of the phenolic residue is no more possible and only the ferrocene labeled molecule can be detected. [drawing 63] [drawing 64] with Kd = (CTCR)/CRT [formula] Kd^(*) = (CT^(*)CR)/CRT^(*) [formula] where CR is the concentration of free aptamer receptor. […] Ideally, the two binding constants should be as close as possible (Kd ≈ K^*d). The value of K^*d was determined by monitoring in CV the reversible response of 5 µM Fc-L-Tym solution as a function of increasing concentrations of D-Apt49.
# The competitive binding assay was achieved from two separate solutions containing a starting mixture of 5 µM Fc- L-Tym and 3 µM or 10 µM D-Apt49, and to which an increasing amount of L-Tym was added. […]
# [3] = tested on: 49-mer scramble oligonucleotide; assay: Redox-mediated catalytic cyclic voltammetry titration with random DNA control; format: binding; details: random sequence with the same GC ratio
# Experimental: 2-Amino-1,3-propanediol hydrochloride (Aldrich), 2-amino-1,3-propanediol (Aldrich), NaCl (Fluka), MgCl2 (Sigma), 1-tyrosinamide (Aldrich), d-tyrosinamide (Millegen, France), paracetamol (Aldrich) and tyrosine (Sigma), triphenylphosphine (Aldrich), diethylazidocarboxylate solution (DEAD) (Aldrich), and ferrocene methanol (Aldrich) were used without further purification. All syntheses were performed with freshly distilled solvents (THF and MeOH). The oligonucleotides (1-DNA and d-DNA) were synthesized and HPLC-purified by Eurogentec (Anger, France) and their concentration was controlled by UV-Vis spectroscopy using a Nanodrop 2000 spectrophotometer (ThermoFisher). The oligonucleotides sequences were: • Apt49-T: (SEQ ID NO: 1) 5'-[…] ― 3' • Scramble: (SEQ ID NO: 2) 5'- […] ― 3'
# as §1, with “Before each experiment, this solution is diluted 10 times in stabilized DMF, such as 0.2 µL in 50 µL of RBr leads to 5 µM of Fc-1-Tym.” left out
smiles,measurement,setting,value
"NC(=O)[C@@H](N)Cc1ccc(O)cc1 [L-Tym, L-tyrosinamide]",Kd,"D-Apt49 [1]; 5 µM target, 1 µM [Os(bpy)3]2+, 5 mM Tris buffer pH 7.0, 50 mM NaCl, 10 mM MgCl2, nonlinear fit of eq 5",2900 ± 300 nM
same,DRT (diffusion coefficient of the receptor-bound target),"D-Apt49 [1]; L-Tym bound to D-Apt49, assuming one electron exchanged",1.4 × 10^-6 cm^2 s^-1
same,DT (diffusion coefficient of the free target),"D-Apt49 [1]; free L-Tym, assuming one electron exchanged",7 × 10^-6 cm^2 s^-1
same,Kd,"D-Apt49 [2]; 3 µM D-Apt49, Tris buffer",2800 ± 400 nM
same,Kd,"D-Apt49 [2]; 10 µM D-Apt49, Tris buffer",2200 ± 600 nM
same,current response when the aptamer was replaced by a 49-mer random DNA sequence,[3],no significant current response decrease
